Source: patent publication US12371454B2, “Cyclic peptide compound having Kras inhibitory action” (priority 2019, dated 2025)
pIC50: −log10 of the molar value. Starred links: 1 amine or outer side, 2 acyl side, 3 side chain; linkers in the order of their positions; H or OH if unused. Positions of bridges follow the written chain, without caps; N, C: chain ends. Non-standard residues stand in square brackets, D forms with d. Residues, ends and D or L forms follow the SMILES beside them. *: point of attachment. hPhe(3-Cl-4-CF3) = N[C@@H](CCc1ccc(C(F)(F)F)c(Cl)c1)C(=O)O; NMePhe(4-CF3) = CN[C@@H](Cc1ccc(C(F)(F)F)cc1)C(=O)O; NMePhe(3-Cl) = CN[C@@H](Cc1cccc(Cl)c1)C(=O)O; NMePhe(4-Br) = CN[C@@H](Cc1ccc(Br)cc1)C(=O)O; NMePhe(3-Me) = CN[C@@H](Cc1cccc(C)c1)C(=O)O; NMePhe(2-Cl) = CN[C@@H](Cc1ccccc1Cl)C(=O)O; NMedβ3hAla = C[C@H](CC(=O)[*:2])N(C)[*:1]; NMeY = CN[C@@H](Cc1ccc(O)cc1)C(=O)O; NMeD = CN[C@@H](CC(=O)O)C(=O)O; NMeL = CN[C@@H](CC(C)C)C(=O)O; NMeV = CN[C@H](C(=O)O)C(C)C; d(β3hA) = C[C@@H](N)CC(=O)O; Piperidide = C1CCN(*)CC1; Ac5c = NC1(C(=O)O)CCCC1; CF3 = FC(F)(F)*; Sar = CNCC(=O)O

Assays:
[1] = molecular target: T1, Kras and SOS1 (biotin-tagged human Kras loaded with GDP, His-tagged human SOS1) (Homo sapiens, UniProt P01116, G12D); assay: Protein-protein interaction inhibition between Kras and SOS1 (KrasGl2D-SOS PPI) using AlphaScreen; assay type: binding; details: AlphaScreen; biotin-tagged human Kras loaded with GDP, His-tagged human SOS1; read-out: KRAS G12D-SOS PPI IC50
T1 construct: made in house; host or cells: E. coli (stated for Kras only)
T1 sequence (P01116 1-188 isoform P01116-2 G12D): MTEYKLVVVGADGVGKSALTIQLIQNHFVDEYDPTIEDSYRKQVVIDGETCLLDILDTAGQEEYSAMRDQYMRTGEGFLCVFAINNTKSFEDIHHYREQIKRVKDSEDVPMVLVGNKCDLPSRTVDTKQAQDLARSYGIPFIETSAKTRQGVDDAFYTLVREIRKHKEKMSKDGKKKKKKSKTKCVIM
In short: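 Read-out is acceptor-bead light at 520-620 nm, arising when 680 nm-irradiated nickel donor beads pass singlet oxygen to streptavidin acceptors. The bead pair links His-tagged SOS1 with biotin-tagged, GDP-bound Kras from E. coli.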

[2] = test system: Human pancreatic cancer cell line AsPC-1; assay: Measurement of AsPC-1 cell growth inhibition (AsPC-1 CGI); assay type: cell-based; details: 96 h
In short: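 AsPC-1 cells in 15% FBS RPMI-1640 were exposed to test compound for 96 hours at 37° C, with CellTiter-Glo as endpoint.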

## CC[C@H](C)[C@@H]1NC(=O)[C@H](CC(C)C)N(C)C(=O)C[C@@H](C(=O)N2CCCCC2)N(C)C(=O)[C@H](C(C)C)N(C)C(=O)C2(CCCC2)NC(=O)[C@@H]2CCCN2C(=O)[C@H](CCc2ccc(C(F)(F)F)c(Cl)c2)NC(=O)CN(C)C(=O)[C@H](Cc2cccc(Cl)c2)N(C)C(=O)CN(C)C(=O)CN(C)C1=O [Compound 1611] ([NMeL]I[Sar][Sar][NMePhe(3-Cl)][Sar][hPhe(3-Cl-4-CF3)]P[Ac5c][NMeV][NMeD]-Piperidide; lactam N-11)
[1]
  pIC50: 8.49
[2]
  pIC50: 6.30 to 7.00

## CC[C@H](C)[C@@H]1NC(=O)[C@H](CC(C)C)N(C)C(=O)C[C@@H](C)N(C)C(=O)[C@H](C(C)C)N(C)C(=O)C2(CCCC2)NC(=O)[C@@H]2CCCN2C(=O)[C@H](CCc2ccc(C(F)(F)F)c(Cl)c2)NC(=O)CN(C)C(=O)[C@H](Cc2ccccc2Cl)N(C)C(=O)CN(C)C(=O)CN(C)C1=O [Compound 1615] (cyclo([Ac5c][NMeV][NMedβ3hAla][NMeL]I[Sar][Sar][NMePhe(2-Cl)][Sar][hPhe(3-Cl-4-CF3)]P))
[1]
  pIC50: 7.40
[2]
  pIC50: 6.30 to 7.00

## CC[C@H](C)[C@@H]1NC(=O)[C@H](CC(C)C)N(C)C(=O)C[C@@H](C)N(C)C(=O)[C@H](C(C)C)N(C)C(=O)C2(CCCC2)NC(=O)[C@@H]2CCCN2C(=O)[C@H](CCc2ccc(C(F)(F)F)c(Cl)c2)NC(=O)CN(C)C(=O)[C@H](Cc2ccc(C(F)(F)F)cc2)N(C)C(=O)CN(C)C(=O)CN(C)C1=O [Compound 1617] (cyclo([Ac5c][NMeV][NMedβ3hAla][NMeL]I[Sar][Sar][NMePhe(4-CF3)][Sar][hPhe(3-Cl-4-CF3)]P))
[1]
  pIC50: 8.57
[2]
  pIC50: 7.00 to 7.30

## CC[C@H](C)[C@@H]1NC(=O)[C@H](CC(C)C)N(C)C(=O)C[C@@H](C)NC(=O)[C@H](C(C)C)N(C)C(=O)C2(CCCC2)NC(=O)[C@@H]2CCCN2C(=O)[C@H](CCc2ccc(C(F)(F)F)c(Cl)c2)NC(=O)CN(C)C(=O)[C@H](Cc2ccc(C(F)(F)F)cc2)N(C)C(=O)CN(C)C(=O)CN(C)C1=O [Compound 1620] (cyclo([Ac5c][NMeV][d(β3hA)][NMeL]I[Sar][Sar][NMePhe(4-CF3)][Sar][hPhe(3-Cl-4-CF3)]P))
[1]
  pIC50: 8.27
[2]
  pIC50: 7.00 to 7.30

## CC[C@H](C)[C@@H]1NC(=O)[C@H](CC(C)C)N(C)C(=O)C[C@@H](C)N(C)C(=O)[C@H](C(C)C)N(C)C(=O)C2(CCCC2)NC(=O)[C@@H]2CCCN2C(=O)[C@H](CCc2ccc(C(F)(F)F)c(Cl)c2)NC(=O)CN(C)C(=O)[C@H](Cc2cccc(Cl)c2)N(C)C(=O)CN(C)C(=O)CN(C)C1=O [Compound 1621] (cyclo([Ac5c][NMeV][NMedβ3hAla][NMeL]I[Sar][Sar][NMePhe(3-Cl)][Sar][hPhe(3-Cl-4-CF3)]P))
[1]
  pIC50: 8.14
[2]
  pIC50: 7.00 to 7.30

## CC[C@H](C)[C@@H]1NC(=O)[C@H](CC(C)C)N(C)C(=O)C[C@@H](C)NC(=O)[C@H](C(C)C)N(C)C(=O)C2(CCCC2)NC(=O)[C@@H]2CCCN2C(=O)[C@H](CCc2ccc(C(F)(F)F)c(Cl)c2)NC(=O)CN(C)C(=O)[C@H](Cc2ccc(Br)cc2)N(C)C(=O)CN(C)C(=O)CN(C)C1=O [Compound 1625] (cyclo([Ac5c][NMeV][d(β3hA)][NMeL]I[Sar][Sar][NMePhe(4-Br)][Sar][hPhe(3-Cl-4-CF3)]P))
[1]
  pIC50: 8.14
[2]
  pIC50: 6.30 to 7.00

## CC[C@H](C)[C@@H]1NC(=O)[C@H](CC(C)C)N(C)C(=O)C[C@@H](C(=O)N2CCCCC2)N(C)C(=O)[C@H](C(C)C)N(C)C(=O)C2(CCCC2)NC(=O)[C@@H]2CCCN2C(=O)[C@H](CCc2ccc(C(F)(F)F)c(Cl)c2)NC(=O)CN(C)C(=O)[C@H](Cc2cccc(C)c2)N(C)C(=O)CN(C)C(=O)CN(C)C1=O [Compound 1626] ([NMeL]I[Sar][Sar][NMePhe(3-Me)][Sar][hPhe(3-Cl-4-CF3)]P[Ac5c][NMeV][NMeD]-Piperidide; lactam N-11)
[1]
  pIC50: 8.36
[2]
  pIC50: 6.30 to 7.00

## CC[C@H](C)[C@@H]1NC(=O)[C@H](CC(C)C)N(C)C(=O)C[C@@H](C(=O)N2CCCCC2)N(C)C(=O)[C@H](C(C)C)N(C)C(=O)C2(CCCC2)NC(=O)[C@@H]2CCCN2C(=O)[C@H](CCc2ccc(C(F)(F)F)c(Cl)c2)NC(=O)CN(C)C(=O)[C@H](Cc2ccc(C(F)(F)F)cc2)N(C)C(=O)CN(C)C(=O)CN(C)C1=O [Compound 1629] ([NMeL]I[Sar][Sar][NMePhe(4-CF3)][Sar][hPhe(3-Cl-4-CF3)]P[Ac5c][NMeV][NMeD]-Piperidide; lactam N-11)
[1]
  pIC50: 8.60
[2]
  pIC50: 7.00 to 7.30

## CC[C@H](C)[C@@H]1NC(=O)[C@H](CC(C)C)N(C)C(=O)C[C@@H](C(=O)N2CCCCC2)N(C)C(=O)[C@H](C(C)C)N(C)C(=O)C2(CCCC2)NC(=O)[C@@H]2CCCN2C(=O)[C@H](CCc2ccc(C(F)(F)F)c(Cl)c2)NC(=O)CN(C)C(=O)[C@H](Cc2ccc(OC(F)(F)F)cc2)N(C)C(=O)CN(C)C(=O)CN(C)C1=O [Compound 1630] ([NMeL]I[Sar][Sar][NMeY](CF3)[Sar][hPhe(3-Cl-4-CF3)]P[Ac5c][NMeV][NMeD]-Piperidide; lactam N-11)
[1]
  pIC50: 8.21
[2]
  pIC50: 6.30 to 7.00
